# Assays:
# TLR7 = biological target: T1, TLR7 (Homo sapiens, UniProt Q9NYK1); experiment: HEK/293 TLR7 Cell Assay; format: cell-based; conditions: TLR7/NFKb HEK cells, R848 agonist 10 uM final concentration, Steady-Glo readout; read-out: TLR7 potency
# T1 construct: expressed in transfected cells; host or cells: HEK/293 cells carrying TLR7 and an NF-kB luciferase reporter
# T1 sequence (Q9NYK1 27-1049): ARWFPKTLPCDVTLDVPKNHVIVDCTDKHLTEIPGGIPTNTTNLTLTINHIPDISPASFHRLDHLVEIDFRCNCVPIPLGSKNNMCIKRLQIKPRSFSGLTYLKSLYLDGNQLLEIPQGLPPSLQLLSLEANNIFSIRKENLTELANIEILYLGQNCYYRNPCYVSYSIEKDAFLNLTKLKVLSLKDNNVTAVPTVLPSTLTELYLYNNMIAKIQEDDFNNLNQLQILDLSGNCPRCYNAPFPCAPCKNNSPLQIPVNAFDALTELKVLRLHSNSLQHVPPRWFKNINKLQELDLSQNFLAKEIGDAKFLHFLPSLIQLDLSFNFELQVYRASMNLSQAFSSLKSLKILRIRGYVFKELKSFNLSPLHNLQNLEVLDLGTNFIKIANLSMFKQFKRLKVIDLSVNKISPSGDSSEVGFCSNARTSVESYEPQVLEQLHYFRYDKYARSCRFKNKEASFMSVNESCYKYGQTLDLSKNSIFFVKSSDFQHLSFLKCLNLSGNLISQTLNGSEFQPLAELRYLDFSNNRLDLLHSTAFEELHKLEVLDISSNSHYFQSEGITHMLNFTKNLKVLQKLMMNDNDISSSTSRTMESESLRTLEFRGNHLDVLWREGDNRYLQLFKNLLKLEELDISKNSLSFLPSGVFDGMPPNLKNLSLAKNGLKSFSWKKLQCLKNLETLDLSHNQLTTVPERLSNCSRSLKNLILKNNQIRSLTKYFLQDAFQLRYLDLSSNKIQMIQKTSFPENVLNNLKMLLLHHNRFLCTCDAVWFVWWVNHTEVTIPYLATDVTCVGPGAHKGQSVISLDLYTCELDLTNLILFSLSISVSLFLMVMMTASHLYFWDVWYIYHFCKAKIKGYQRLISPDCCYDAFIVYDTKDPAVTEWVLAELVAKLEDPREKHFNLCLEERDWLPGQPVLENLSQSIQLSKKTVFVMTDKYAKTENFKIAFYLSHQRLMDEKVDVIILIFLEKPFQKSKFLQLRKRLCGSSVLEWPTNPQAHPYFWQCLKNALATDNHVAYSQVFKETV
# Procedure, shortened: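 TLR7/NF-κB reporter HEK293 cells, 5000/well, cultured 24 h, then preincubated 30 min with compound before R848 agonist (10 uM final). After 5 h stimulation, Steady-Glo luciferase luminescence read.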
# TLR8 = biological target: T2, TLR8 (Homo sapiens, UniProt Q9NR97); experiment: HEK/293 TLR8 Cell Assay; format: cell-based; conditions: HEK cells, R848 agonist 30 uM final concentration, Steady-Glo readout; read-out: TLR8 potency
# T2 construct: expressed in transfected cells; host or cells: HEK/293 reporter cells (NF-kB luciferase)
# T2 sequence (Q9NR97 27-1041): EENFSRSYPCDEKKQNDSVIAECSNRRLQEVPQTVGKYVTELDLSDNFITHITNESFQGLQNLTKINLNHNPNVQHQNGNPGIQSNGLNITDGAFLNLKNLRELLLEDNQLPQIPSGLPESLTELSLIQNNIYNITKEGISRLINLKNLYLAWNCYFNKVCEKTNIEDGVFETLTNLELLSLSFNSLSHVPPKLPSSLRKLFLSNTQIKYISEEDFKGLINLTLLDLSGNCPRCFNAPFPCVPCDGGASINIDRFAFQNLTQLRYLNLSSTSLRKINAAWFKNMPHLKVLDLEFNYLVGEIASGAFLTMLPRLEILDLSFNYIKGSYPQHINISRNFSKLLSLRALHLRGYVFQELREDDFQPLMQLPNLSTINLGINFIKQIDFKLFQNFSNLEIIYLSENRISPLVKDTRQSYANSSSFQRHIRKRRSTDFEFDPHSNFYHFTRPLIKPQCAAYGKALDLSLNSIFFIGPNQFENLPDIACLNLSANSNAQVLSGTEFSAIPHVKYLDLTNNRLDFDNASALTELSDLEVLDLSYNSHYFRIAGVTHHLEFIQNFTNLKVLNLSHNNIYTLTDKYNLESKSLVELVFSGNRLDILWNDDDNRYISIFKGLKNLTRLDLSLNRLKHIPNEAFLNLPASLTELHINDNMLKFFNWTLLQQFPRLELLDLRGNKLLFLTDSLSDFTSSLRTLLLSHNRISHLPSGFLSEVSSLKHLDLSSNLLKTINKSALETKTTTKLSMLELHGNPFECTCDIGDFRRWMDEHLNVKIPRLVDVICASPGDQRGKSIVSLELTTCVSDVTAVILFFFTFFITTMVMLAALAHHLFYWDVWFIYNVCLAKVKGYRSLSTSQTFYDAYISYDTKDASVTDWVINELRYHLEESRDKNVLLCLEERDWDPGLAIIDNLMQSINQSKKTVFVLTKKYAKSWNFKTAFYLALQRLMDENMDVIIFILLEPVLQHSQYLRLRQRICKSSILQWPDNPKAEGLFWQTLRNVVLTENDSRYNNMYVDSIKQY
SMILES,IC50 (TLR7) [µM],IC50 (TLR8) [µM]
"C[C@H]1C[C@@H](NCC2(O)CCOCC2)CN(c2ccc(C#N)c3nccnc23)C1 [Example 14, 8-{(3R,5S)-3-[(4-Hydroxy-tetrahydro-pyran-4-ylmethyl)-amino]-5-methyl-piperidin-1-yl}-quinoxaline-5-carbonitrile]",< 0.075,< 0.075
"CC(=O)N1CCC(NC(=O)[C@H]2CN(c3ccc(C#N)c4nccnc34)C[C@@H](C)O2)CC1 [Example 242, (2R,6R)-4-(8-Cyano-quinoxalin-5-yl)-6-methyl-morpholine-2-carboxylic acid (1-acetyl-piperidin-4-yl)-amide]",< 0.075,< 0.075
"C[C@H]1C[C@@H](NC(=O)C[C@@H]2CCNC[C@@H]2F)CN(c2ccc(C#N)c3ncncc23)C1 [Example 131, N-[(3R,5S)-1-(8-cyanoquinazolin-5-yl)-5-methylpiperidin-3-yl]-2-[(3R,4S)-3-fluoropiperidin-4-yl]acetamide]",< 0.075,> 0.15
"C[C@@H]1CN(c2ccc(C#N)c3nccnc23)C[C@H](C(=O)NC[C@H](O)C(F)(F)F)O1 [Example 249, (2R,6R)-4-(8-Cyano-quinoxalin-5-yl)-6-methyl-morpholine-2-carboxylic acid ((S)-3,3,3-trifluoro-2-hydroxy-propyl)-amide]",< 0.075,< 0.075
"C[C@H]1C[C@@H](n2ccnn2)CN(c2ccc(C#N)c3nccnc23)C1 (racemic) [Example 153, 8-[cis-3-methyl-5-(1H-1,2,3-triazol-1-yl)piperidin-1-yl]quinoxaline-5-carbonitrile]",> 0.15,< 0.075
"C[C@H]1C[C@@H](NCCCS(N)(=O)=O)CN(c2ccc(C#N)c3nccnc23)C1 [Example 34, 3-[(3R,5S)-1-(8-Cyano-quinoxalin-5-yl)-5-methyl-piperidin-3-ylamino]-propane-1-sulfonic acid amide]",< 0.075,< 0.075
"N#Cc1ccc(N2C[C@H](NC(=O)C3(F)CCNC3)C[C@H](C(F)(F)F)C2)c2cccnc12 (single isomer, unassigned) [Example 163]",< 0.075,< 0.075
"C[C@H]1C[C@@H](NCCNS(C)(=O)=O)CN(c2ccc(C(F)(F)F)c3ncccc23)C1 [Example 20, N-(2-{[(3R,5S)-5-methyl-1-[8-(trifluoromethyl)quinolin-5-yl]piperidin-3-yl]amino}ethyl)methanesulfonamide]",< 0.075,< 0.075
"N#Cc1ccc(N2C[C@H](NCCCS(N)(=O)=O)C[C@H](C(F)(F)F)C2)c2cccnc12 [Example 38, 3-[(3R,5S)-1-(8-Cyano-quinolin-5-yl)-5-trifluoromethyl-piperidin-3-ylamino]-propane-1-sulfonic acid amide]",> 0.15,0.075 to 0.15
"C[C@H]1C[C@@H](NC(=O)C[C@H]2CCNC[C@H]2F)CN(c2ccc(C#N)c3ncncc23)C1 [Example 132, N-[(3R,5S)-1-(8-cyanoquinazolin-5-yl)-5-methylpiperidin-3-yl]-2-[(3S,4R)-3-fluoropiperidin-4-yl]acetamide]",< 0.075,0.075 to 0.15

# Now from value to molecule:
IC50 (TLR7) [µM],IC50 (TLR8) [µM],SMILES
< 0.075,< 0.075,"C[C@H]1C[C@@H](NCC2(O)CCOCC2)CN(c2ccc(C(F)(F)F)c3ncccc23)C1 [Example 50, 4-{[(3R,5S)-5-Methyl-1-(8-trifluoromethyl-quinolin-5-yl)-piperidin-3-ylamino]-methyl}-tetrahydro-pyran-4-ol]"
< 0.075,> 0.15,"C[C@@H]1CN(c2ccc(C#N)c3ncncc23)C[C@H](CN2CCN(C)CC2)O1 [Example 224, 5-[(2R,6S)-2-Methyl-6-(4-methyl-piperazin-1-ylmethyl)-morpholin-4-yl]-quinazoline-8-carbonitrile]"
< 0.075,< 0.075,"CN1CC[C@](F)(CNC(=O)[C@H]2CN(c3ccc(C#N)c4nccnc34)C[C@@H](C(F)(F)F)O2)C1 (single isomer, unassigned) [Example 357]"
0.075 to 0.15,< 0.075,"CC(C(=O)N[C@@H]1C[C@H](C(F)(F)F)CN(c2ccc(C(F)(F)F)c3ncccc23)C1)N1CCN(C)CC1 (single isomer, unassigned) [Example 94]"
< 0.075,> 0.15,"C[C@@H]1CN(c2ccc(C#N)c3nccnc23)C[C@H](C(=O)NCCC2CS(=O)(=O)C2)O1 [Example 259, (2R,6R)-4-(8-cyanoquinoxalin-5-yl)-N-[2-(1,1-dioxo-1λ^6-thietan-3-yl)ethyl]-6-methylmorpholine-2-carboxamide]"
> 0.15,> 0.15,"N#Cc1ncc(N2C[C@@H](C(F)(F)F)O[C@@H](C(=O)NC[C@]3(F)CCNC3)C2)c2cccnc12 (single isomer, unassigned) [Example 320]"
0.075 to 0.15,> 0.15,"N#Cc1ccc(N2C[C@@H](C(F)(F)F)O[C@@H](C(=O)NC[C@H](O)CO)C2)c2nccnc12 (single isomer, unassigned) [Example 280]"
< 0.075,< 0.075,"C[C@H]1C[C@@H](NC(=O)C2(N)CCCNC2)CN(c2ccc(C(F)(F)F)c3ncccc23)C1 (stereo partly drawn) [Example 180, 3-Amino-piperidine-3-carboxylic acid [(3R,5S)-5-methyl-1-(8-trifluoromethyl-quinolin-5-yl)-piperidin-3-yl]-amide]"
0.075 to 0.15,< 0.075,"C[C@@H]1CN(c2cnc(C#N)c3ncccc23)C[C@H](CNC(=O)[C@]2(F)CCN(C)C2)O1 (single isomer, unassigned) [Example 335]"
> 0.15,< 0.075,"C[C@@H]1CN(c2cnc(C(F)(F)F)c3ncccc23)C[C@H](CNC[C@H]2CN(C)CCO2)O1 (single isomer, unassigned) [Example 385]"
> 0.15,> 0.15,"N#Cc1ccc(N2C[C@@H](C(=O)NC[C@H](O)CO)O[C@@H](C(F)(F)F)C2)c2nccnc12 (single isomer, unassigned) [Example 281]"
< 0.075,< 0.075,"CN(C)CCC(=O)N[C@@H]1C[C@H](C(F)(F)F)CN(c2ccc(C(F)(F)F)c3ncccc23)C1 [Example 64, 3-(dimethylamino)-N-[(3R,5S)-5-(trifluoromethyl)-1-[8-(trifluoromethyl)quinolin-5-yl]piperidin-3-yl]propanamide]"
< 0.075,< 0.075,"N#Cc1ccc(N2C[C@H](NC(=O)CC3CCNCC3F)C[C@H](C(F)(F)F)C2)c2cccnc12 (stereo partly drawn) [Example 138, N-[(3R,5S)-1-(8-Cyano-quinolin-5-yl)-5-trifluoromethyl-piperidin-3-yl]-2-(3-fluoro-piperidin-4-yl)-acetamide]"

# From patent publication US20210300940A1 (Merck Patent GmbH, priority 2018, published 2021)
